Active and inactive are the calls of the source. No rule for the calls is given here.
System: rodent carcinogenicity bioassays, tumor incidence
Assay: CCRIS carcinogenicity studies
Outline: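 Archive of carcinogenicity, mutagenicity, tumor promotion and tumor inhibition results drawn from journals, NCI reports and other sources, expert-reviewed; covers 1985-2011 and is no longer updated.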

## C[N+](C)(C)NCCC(=O)[O-]
Species: MOUSE, Strain/Sex: B6D2F1/FEMALE, Route: GAVAGE, Dose: 0, 400, 4000 MG/KG BW IN 0.2 ML WATER 3X/WK FOR 22 MONTHS (STUDY DURATION: 22 MONTHS), Dose: 0, 400, 4000 MG/KG BW IN 0.2 ML WATER 3X/WK FOR 22 MONTHS (STUDY DURATION: 22 MONTHS)
  carcinogen call: inactive; negative
Species: MOUSE, Strain/Sex: C3H/FEMALE, Route: ORAL, Dose: 0, 0.1% IN DRINKING WATER FOR LIFETIME (STUDY DURATION: LIFETIME)
  carcinogen call: inactive; negative
Species: MOUSE, Strain/Sex: SHR/FEMALE, Route: SUBCUTANEOUS, Dose: 0, 0.1 MG IN ISOTONIC SALINE 1X/D FOR 5 D WITH 4-WK INTERVALS FOR LIFETIME (STUDY DURATION: LIFETIME)
  carcinogen call: inactive; negative

## CN(C)c1ccc(C(=C2C=CC(=[N+](C)C)C=C2)c2c(O)c(S(=O)(=O)[O-])cc3cc(S(=O)(=O)O)ccc23)cc1
Species: MOUSE, Strain/Sex: CD-1/FEMALE, Route: ORAL, Dose: 0, 0.033, 0.33, 0.66% IN DIET TO PUPS OF PARENTS GIVEN THE SAME DIETARY DOSES FOR 9 WK PRIOR TO MATING. FROM 2 TO 5 WK O, Dose: 0, 0.033, 0.33, 0.66% IN DIET TO PUPS OF PARENTS GIVEN THE SAME DIETARY DOSES FOR 9 WK PRIOR TO MATING. FROM 2 TO 5 WK O
  carcinogen call: inactive; negative
Species: MOUSE, Strain/Sex: CD-1/MALE, Route: ORAL, Dose: 0, 0.033, 0.33, 0.66% IN DIET TO PUPS OF PARENTS GIVEN THE SAME DIETARY DOSES FOR 9 WK PRIOR TO MATING. FROM 2 TO 5 WK O, Dose: 0, 0.033, 0.33, 0.66% IN DIET TO PUPS OF PARENTS GIVEN THE SAME DIETARY DOSES FOR 9 WK PRIOR TO MATING. FROM 2 TO 5 WK O
  carcinogen call: inactive; negative

## C[C@]12CC[C@@H]3c4ccc(OC(=O)Cc5ccc(N(CCCl)CCCl)cc5)cc4CC[C@H]3[C@@H]1CC[C@@H]2OC(=O)Cc1ccc(N(CCCl)CCCl)cc1
Species: MOUSE, Strain/Sex: B6C3F1/FEMALE, Route: GAVAGE, Dose: 0, 15, 30 MG/KG 3/WK FOR 52 WKS, Dose: 0, 15, 30 MG/KG 3/WK FOR 52 WKS, Tumor Site: Type of Lesion: LUNG: ALVEOLAR/BRONCHIOLAR ADENOMA OR CARCINOMA, LYMPHATIC SYSTEM: LYMPHOMA, MYOCARDIUM: SARCOMA, STOMACH, Tumor Site: Type of Lesion: LUNG: ALVEOLAR/BRONCHIOLAR ADENOMA OR CARCINOMA, LYMPHATIC SYSTEM: LYMPHOMA, MYOCARDIUM: SARCOMA, STOMACH
  carcinogen call: active; positive
Species: MOUSE, Strain/Sex: B6C3F1/MALE, Route: GAVAGE, Dose: 0, 15, 30 MG/KG 3/WK FOR 52 WKS, Dose: 0, 15, 30 MG/KG 3/WK FOR 52 WKS, Tumor Site: Type of Lesion: LUNG: ALVEOLAR/BRONCHIOLAR ADENOMA OR CARCINOMA, HEMATOPOIETIC SYSTEM (LEUKEMIA): LYMPHOCYTIC LEUKEMIA, LYMPHATIC SYSTEM, Tumor Site: Type of Lesion: LUNG: ALVEOLAR/BRONCHIOLAR ADENOMA OR CARCINOMA, HEMATOPOIETIC SYSTEM (LEUKEMIA): LYMPHOCYTIC LEUKEMIA, LYMPHATIC SYSTEM
  carcinogen call: active; positive
Species: RAT, Strain/Sex: SPRAGUE-DAWLEY/FEMALE, Route: GAVAGE, Dose: 0, 0.62, 1.25 MG/KG IN 0.05% POLYSORB 80 IN PHOS BUFF SALINE 3/WK FOR 52 WK, Dose: 0, 0.62, 1.25 MG/KG IN 0.05% POLYSORB 80 IN PHOS BUFF SALINE 3/WK FOR 52 WK
  carcinogen call: inactive; negative
Species: RAT, Strain/Sex: SPRAGUE-DAWLEY/MALE, Route: GAVAGE, Dose: 0, 0.62, 1.25 MG/KG IN 0.05% POLYSORB 80 IN PHOS BUFF SALINE 3/WK FOR 52 WK, Dose: 0, 0.62, 1.25 MG/KG IN 0.05% POLYSORB 80 IN PHOS BUFF SALINE 3/WK FOR 52 WK
  carcinogen call: inactive; negative

## Nc1ccc(NCCO)c([N+](=O)[O-])c1
Species: MOUSE, Strain/Sex: B6C3F1/MALE, Route: GAVAGE, Dose: 0, 125, 250 MG/KG IN CORN OIL 5 D/WK FOR 104 WK (STUDY DURATION: 105 WK), Dose: 0, 125, 250 MG/KG IN CORN OIL 5 D/WK FOR 104 WK (STUDY DURATION: 105 WK), Tumor Site: Type of Lesion: LIVER: HEPATOCELLULAR ADENOMA OR CARCINOMA
  carcinogen call: equivocal
Species: RAT, Strain/Sex: F344/FEMALE, Route: GAVAGE, Dose: 0, 250, 500 MG/KG IN CORN OIL 5 D/WK FOR 105 WK (STUDY DURATION: 105 WK), Dose: 0, 250, 500 MG/KG IN CORN OIL 5 D/WK FOR 105 WK (STUDY DURATION: 105 WK)
  carcinogen call: inactive; negative
Species: RAT, Strain/Sex: F344/MALE, Route: GAVAGE, Dose: 0, 250, 500 MG/KG IN CORN OIL 5 D/WK FOR 105 WK (STUDY DURATION: 105 WK), Dose: 0, 250, 500 MG/KG IN CORN OIL 5 D/WK FOR 105 WK (STUDY DURATION: 105 WK)
  carcinogen call: inactive; negative

## CC(CNN)c1ccccc1 (stereo unspecified)
Species: MOUSE, Strain/Sex: SWISS/FEMALE, Route: ORAL, Dose: 0, 156, 312 PPM IN DRINKING WATER DAILY FOR LIFE (STUDY DURATION: 120-140 WK), Dose: 0, 156, 312 PPM IN DRINKING WATER DAILY FOR LIFE (STUDY DURATION: 120-140 WK)
  carcinogen call: inactive; negative
Species: MOUSE, Strain/Sex: SWISS/MALE, Route: ORAL, Dose: 0, 156, 312 PPM IN DRINKING WATER DAILY FOR LIFE (STUDY DURATION: 120-140 WK), Dose: 0, 156, 312 PPM IN DRINKING WATER DAILY FOR LIFE (STUDY DURATION: 120-140 WK)
  carcinogen call: inactive; negative

## COc1nn(CSP(=S)(OC)OC)c(=O)s1
Species: DOG, Strain/Sex: BEAGLE/FEMALE, Route: ORAL, Dose: 0, 0.5, 2, 4, 40, 140 PPM IN DIET FOR 1 YR (STUDY DURATION: 1 YR), Dose: 0, 0.5, 2, 4, 40, 140 PPM IN DIET FOR 1 YR (STUDY DURATION: 1 YR)
  carcinogen call: inactive; negative
Species: DOG, Strain/Sex: BEAGLE/MALE, Route: ORAL, Dose: 0, 0.5, 2, 4, 40, 140 PPM IN DIET FOR 1 YR (STUDY DURATION: 1 YR), Dose: 0, 0.5, 2, 4, 40, 140 PPM IN DIET FOR 1 YR (STUDY DURATION: 1 YR)
  carcinogen call: inactive; negative

## CNC(=O)Oc1ccc2c(c1)[C@]1(C)CCN(C)[C@@H]1N2C
Species: RAT, Strain/Sex: SPRAGUE-DAWLEY/FEMALE (70/GROUP), Route: SUBCUTANEOUS (INGUINAL REGION), Dose: 0, 3.3 UG/KG BW, 2/D FOR 5 D (STUDY DURATION: 28 MO), Dose: 0, 3.3 UG/KG BW, 2/D FOR 5 D (STUDY DURATION: 28 MO), Tumor Site: Type of Lesion: MAMMARY GLAND: TUMOR
  carcinogen call: active; positive

## CI
Species: MOUSE, Route: INTRAPERITONEAL, Tumor Site: Type of Lesion: LUNG
  carcinogen call: active; positive
Species: RAT, Route: SUBCUTANEOUS, Tumor Site: Type of Lesion: INJECTION SITE
  carcinogen call: active; positive
Species: Rat, Strain/Sex: Crl:CD(SD)IGS BR/Female (50/Group), Route: Inhalation (whole body), Dose: 0, 5, 20, 60 ppm for 2 yr, study duration 2 yr, Dose: 0, 5, 20, 60 ppm for 2 yr, study duration 2 yr, Tumor Site: Type of Lesion: Thyroid: follicular cell adenoma (60 ppm)
  carcinogen call: active; positive
Species: Rat, Strain/Sex: Crl:CD(SD)IGS BR/Male (50/Group), Route: Inhalation (whole body), Dose: 0, 5, 20, 60 ppm for 2 yr, study duration 2 yr, Dose: 0, 5, 20, 60 ppm for 2 yr, study duration 2 yr, Tumor Site: Type of Lesion: Thyroid: follicular cell adenoma (60 ppm)
  carcinogen call: active; positive
